“Also recorded” adds a separate entry of the source. Like-named read-outs stand apart in the source and are kept apart here.
Tests used:
VSV-Gpp [1] = format: physicochemical, HIV lentivirus pseudotyped with VSV-G
[2] = Cytotoxicity on human cell lines (Cell Titer-Glo); format: cell-based
HIV-1 92RW021 = assay: HIV infectivity assay in TZM-bl cells; format: cell-based; settings: 92RW021 (clade A, R5); for IC50: Human immunodeficiency virus 1, TZM-bl
HIV-1 92TH026 = assay: HIV infectivity assay in TZM-bl cells; format: cell-based; settings: 92TH026 (clade B, R5); for IC50: Human immunodeficiency virus 1, TZM-bl
SIVsyk1.2 = assay: SIV infectivity assay in TZM-bl cells; format: cell-based; settings: Simian immunodeficiency virus, first value cell of the line (cells shifted; presumably DMEM)
HIV-1 RU132 = assay: Anti-HIV efficacy in fresh human PBMC (reverse transcriptase activity); format: cell-based; settings: Human immunodeficiency virus 1, PBMC, 168 h; RU132 (clade G, R5); PBMCs, MOI = 0.1, 7 days
HCVcc = test system: HCVcc; set-up: species or system HCV
HIV-1 92HT599 = assay: Anti-HIV efficacy in fresh human PBMC (reverse transcriptase activity); format: cell-based; settings: Human immunodeficiency virus 1, PBMC, 168 h; 92HT599 (clade B, X4); PBMCs, MOI = 0.1, 7 days
HIV-1 93BR021 = assay: as above; format: cell-based; settings: Human immunodeficiency virus 1, PBMC, 168 h; 93BR021 (clade B, R5); PBMCs, MOI = 0.1, 7 days
[3] = test system: pseudotyped NL4.3 Env-eGFP/gp160 Env virus; assay: HIV-1 cell-to-cell transfer assay (DC to Jurkat T cells); format: cell-based; settings: 10 μM PD added to DC 2 h after virus, washed after 2 h
HIV-1 92TH599 = assay: HIV infectivity assay in TZM-bl cells; format: cell-based; settings: 92TH599 (clade B, X4); for IC50: Human immunodeficiency virus 1, TZM-bl
[4] = test system: Dengue virus (DenV), serotype 2 New Guinea C strain; assay: Dengue virus plaque assay on Vero cells; format: cell-based; settings: 300 μM PD
VSV-Gpp [5] = test system: VSV-Gpp

**Q.** What does the source list for `N=C1Sc2ccccc2C2=NCCCN12` [PD, PD 404,182]?
**A.** long-term stability (antiviral potency) (VSV-Gpp [1]; pH 4): retains full antiviral potency; also recorded: retains its full potency; long-term stability (VSV-Gpp [1]; pH 7): stable only at room temperature and 4 °C; also recorded: significantly compromised PD activity after 2 weeks; stability in HEC gel (VSV-Gpp [1]; pH 7): not stable; CC50 ([2]; HepG2, HCT-8, Huh-7, Huh-7.5, TZM, PC3 and 293T cells, seven different human cell lines): > 300 µM; CC50 ([2]; human, TZM-bl (HeLa) cervical cancer cells): > 300 µM; IC90 (HIV-1 92RW021; PD in DMEM + 10% FBS): 3.8 ± 0.3 µM; IC90 (HIV-1 92RW021; PD in cervical fluids): 4.4 ± 0.2 µM; IC90 (HIV-1 92RW021; PD in seminal plasma): 4.62 ± 0.32 µM; IC50 (HIV-1 92RW021; PD in DMEM + 10% FBS): 0.43 µM; IC50 (HIV-1 92RW021; PD in cervical fluids): 0.67 µM; IC50 (HIV-1 92RW021; PD in seminal plasma): 0.58 µM; IC90 (HIV-1 92TH026; PD in DMEM + 10% FBS): 2.8 ± 0.2 µM; IC90 (HIV-1 92TH026; PD in cervical fluids): 3.3 ± 0.1 µM; IC90 (HIV-1 92TH026; PD in seminal plasma): 2.95 ± 0.16 µM; IC50 (HIV-1 92TH026; PD in DMEM + 10% FBS): 0.35 µM; IC50 (HIV-1 92TH026; PD in cervical fluids): 0.61 µM; IC50 (HIV-1 92TH026; PD in seminal plasma): 0.43 µM; IC50 (SIVsyk1.2): 1.9 µM; IC50 (HIV-1 RU132): 0.2 µM; IC90 (HIV-1 RU132): 0.53 µM; HCVcc virion lysis (HCVcc): 27%; IC50 (HIV-1 92HT599): 0.55 µM; IC90 (HIV-1 92HT599): 1.92 µM; IC50 (HIV-1 93BR021): 0.6 µM; IC90 (HIV-1 93BR021): 4.26 µM; DC-mediated transmission of HIV-1 to T cells [3]: prevents subsequent T cell infection with the pseudotyped virus; IC50 (DMEM; IC90 per footnote) (HIV-1 92TH599; PD in DMEM + 10% FBS): 5.9 ± 0.3 µM; IC50 (Cervical Fluid; IC90 per footnote) (HIV-1 92TH599; PD in cervical fluids): 6.4 ± 0.5 µM; IC50 (Seminal Plasma; IC90 per footnote) (HIV-1 92TH599; PD in seminal plasma): 6.31 ± 0.52 µM; IC50 (HIV-1 92TH599; PD in DMEM + 10% FBS): 1.8 µM; IC50 (HIV-1 92TH599; PD in cervical fluids): 2.2 µM; IC50 (HIV-1 92TH599; PD in seminal plasma): 1.93 µM; effect on infectivity of DenV [4]: no significant inhibitory effect; stability in acidic buffer (VSV-Gpp [5]; pH 4): highly stable; activity loss (VSV-Gpp [5]; pH 8): no activity loss; antiviral activity lost (VSV-Gpp [5]; pH 8): ~20%; activity loss (VSV-Gpp [5]; pH 10): ~20%; antiviral activity lost (VSV-Gpp [5]; pH 10): ~50%
